From paper PMC11311821, “Biochemical Characterisation of Sis: A Distinct Thermophilic PETase with Enhanced NanoPET Substrate Hydrolysis and Thermal Stability” (International Journal of Molecular Sciences, 2024)

Test system: Sis
Experiment: spectrophotometric p-nitrophenol release at […] nm
Format: biochemical, metagenome: geothermal site (36 °C, pH 9.8)
Conditions: optimal conditions of pH and temperature (sodium-phosphate pH 7.0, 70 °C)

Km: 80 ± 10 µM
Compound: CCCC(=O)Oc1ccc([N+](=O)[O-])cc1 [pNP-butyrate]
